Results from US20150010928A1, “MEANS AND METHODS FOR ASSESSING AN ENDOCRINE DISEASE OR DISORDER” (priority 2012, published 2015).
Structures can show the parent of a compound that is named as a salt. Marks after values point to notes of the source that are not given here. Each block holds one molecule with its values, some of them ahead of it.

Tests used:
female rats = test: Plasma metabolite profiling (GC-MS, LC-MS, SPE-LC-MS) in female rats dosed once daily over 28 days (OECD 407); type: in vivo, rat; parameters: key to 5-O-Methylsphingosine (d18:1) / Isopalmitic acid (C16:0) / Valine / Alanine / Ketoleucine / Serine / Lactate / Arginine: ratio of treated group mean to untreated control mean; details: for Alanine / Arginine / Ketoleucine / Lactate / Proline / Serine / Valine: Table 17b
Procedure: Each dose group in the studies consisted of five rats per sex. Additional groups of each 5 male and female animals served as controls. […] All animals of the animal population were kept under the same constant temperature (20-24±3° C.) and the same constant humidity (30-70%). The animals of the animal population were fed ad libitum. The food to be used was essentially free of chemical or microbial contaminants. Drinking water was also offered ad libitum. Accordingly, the water was free of chemical and microbial contaminants as laid down in the European Drinking Water Directive 98/83/EG. The illumination period was 12 hours light followed by 12 hours darkness (12 hours light, from 6:00 to 18:00, and 12 hours darkness, from 18:00 to 6:00). […] The test substances (compounds) in the Tables 1 to 17 below were dosed and administered as described in the Table 18.
In the morning of day 7, 14, and 28, blood was taken from the retroorbital venous plexus from fasted anaesthetized animals. From each animal, 1 ml of blood was collected with EDTA as anticoagulant. The samples were centrifuged for generation of plasma. All plasma samples were covered with a N2 atmosphere and then stored at −80° C. until analysis.
For mass spectrometry-based metabolite profiling analyses plasma samples were extracted and a polar and a non-polar (lipid) fraction was obtained. For GC-MS analysis, the non-polar fraction was treated with methanol under acidic conditions to yield the fatty acid methyl esters. Both fractions were further derivatised with O-methyl-hydroxyamine hydrochloride and pyridine to convert Oxogroups to O-methyloximes and subsequently with a silylating agent before analysis. In LC-MS analysis, both fractions were reconstituted in appropriate solvent mixtures. HPLC was performed by gradient elution on reversed phase separation columns. Mass spectrometric detection which allows target and high sensitivity MRM (Multiple Reaction Monitoring) profiling in parallel to a full screen analysis was applied as described in WO2003073464.
Steroids and their metabolites were measured by online SPE-LC-MS (Solid phase extraction-LC-MS).
Following comprehensive analytical validation steps, the data for each analyte were normalized against data from pool samples. These samples were run in parallel through the whole process to account for process variability. The significance of treatment group values specific for sex, treatmentduration and metabolite was determined by comparing means of the treated groups to the means of the respective untreated control groups using WELCH-test and quantified with treatment ratios versus control and p-values.
The identification of the most important biomarkers per toxicity pattern was done by a ranking of the analytes in the tables below. Therefore the metabolic changes in reference treatments of a given pattern (shown in the table) were compared with changes of the same metabolite in other unrelated treatments. […] The maximum absolute value of the respective TVALUE was taken to indicate the most important metabolite for the pattern.

male rats = test: Plasma metabolite profiling (GC-MS, LC-MS, SPE-LC-MS) in male rats dosed once daily over 28 days (OECD 407); type: in vivo, rat; details: high dose, Table 14b
Procedure, shortened: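 Polar and lipid fractions profiled by GC-MS and LC-MS/MRM, steroids by online SPE-LC-MS; pool-normalized data compared to controls by Welch test as treatment ratios and p-values.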

[1] = female rats, plasma, high dose, day 7
[2] = female rats, plasma, high dose, day 14
[3] = female rats, plasma, high dose, day 28

- Glycine, ratio versus control (female rats; [1]): 1.53 *
- Lysine, ratio versus control (female rats; [1]): 0.8 *
- Lysophosphatidylcholine (C17:0), ratio versus control (female rats; [1]): 0.74 *
- Phosphatidylcholine (C18:0, C20:3), ratio versus control (female rats; [1]): 0.73 *
- Phosphatidylcholine (C18:0, C22:6), ratio versus control (female rats; [1]): 0.87 *
- Proline, ratio versus control (female rats; [1]): 1.16 *
- TAG (C16:0, C18:2), ratio versus control (female rats; [1]): 2.05 *
- TAG (C18:2, C18:3), ratio versus control (female rats; [1]): 1.84 *
- TAG (DAG-Fragment), ratio versus control (female rats; [1]): 1.8 *
- TAG No 059, ratio versus control (female rats; [1]): 1.61 *
- Thyroxine (T4), ratio versus control (female rats; [1]): 1.36^
- Coenzyme Q9, ratio versus control (female rats; [2]): 1.29 *
- Glycine, ratio versus control (female rats; [2]): 1.51 *
- Lysine, ratio versus control (female rats; [2]): 0.61 *
- Lysophosphatidylcholine (C17:0), ratio versus control (female rats; [2]): 0.72 *
- Phosphatidylcholine (C16:0, C20:5), ratio versus control (female rats; [2]): 1.25 *
- Phosphatidylcholine (C18:0, C20:3), ratio versus control (female rats; [2]): 0.86 *
- Phosphatidylcholine (C18:0, C22:6), ratio versus control (female rats; [2]): 0.85 *
- Proline, ratio versus control (female rats; [2]): 1.2 *
- TAG (C16:0, C18:2), ratio versus control (female rats; [2]): 1.27 *
- TAG (C18:2, C18:3), ratio versus control (female rats; [2]): 1.31 *
- TAG (DAG-Fragment), ratio versus control (female rats; [2]): 1.4 *
- TAG No 059, ratio versus control (female rats; [2]): 1.47 *
- Thyroxine (T4), ratio versus control (female rats; [2]): 2.5 *
- Coenzyme Q9, ratio versus control (female rats; [3]): 1.31 *
- Glycine, ratio versus control (female rats; [3]): 1.4 *
- Lysine, ratio versus control (female rats; [3]): 0.81 *
- Lysophosphatidylcholine (C17:0), ratio versus control (female rats; [3]): 0.72 *
- Phosphatidylcholine (C18:0, C20:3), ratio versus control (female rats; [3]): 0.81 *
- Phosphatidylcholine (C18:0, C22:6), ratio versus control (female rats; [3]): 0.72 *
- TAG (C16:0, C18:2), ratio versus control (female rats; [3]): 1.95 *
- TAG (C18:2, C18:3), ratio versus control (female rats; [3]): 1.64 *
- TAG (DAG-Fragment), ratio versus control (female rats; [3]): 1.76 *
- TAG No 059, ratio versus control (female rats; [3]): 1.61 *
- Thyroxine (T4), ratio versus control (female rats; [3]): 1.57 *
- Coenzyme Q9, ratio versus control (female rats; rat, in vivo): 1.18 *
- Proline, ratio versus control (female rats; rat, in vivo): 1.14 *
- Cholesterol (male rats; m7): 0.44
- Choline plasmalogen No 02 (male rats; m7): 0.67
- Lignoceric acid (C24:0) (male rats; m7): 0.45
- Sphingomyelin (d18:1, C16:0) (male rats; m7): 0.52
- Sphingomyelin (d18:2, C16:0) (male rats; m7): 0.82
- erythro-Sphingosine (d18:1) (male rats; m7): 0.38
- Cholesterol (male rats; m14): 0.47
- Choline plasmalogen No 02 (male rats; m14): 0.69
- Lignoceric acid (C24:0) (male rats; m14): 0.39
- Sphingomyelin (d18:1, C16:0) (male rats; m14): 0.62
- Sphingomyelin (d18:2, C16:0) (male rats; m14): 0.78
- erythro-Sphingosine (d18:1) (male rats; m14): 0.49
- Cholesterol (male rats; m28): 0.63
- Choline plasmalogen No 02 (male rats; m28): 0.65
- Lignoceric acid (C24:0) (male rats; m28): 0.64
- Sphingomyelin (d18:1, C16:0) (male rats; m28): 0.65
- Sphingomyelin (d18:2, C16:0) (male rats; m28): 0.63
- erythro-Sphingosine (d18:1) (male rats; m28): 0.57
SMILES: O=C(c1ccc(OCCN2CCCCC2)cc1)c1c(-c2ccc(O)cc2)sc2cc(O)ccc12 [Raloxifene Hydrochloride]

- Isopalmitic acid (C16:0) (female rats; f7, female rats, high dose, Table 17a): 1.46 *
- Alanine (female rats; f7, female rats, high dose): 0.83
- Arginine (female rats; f7, female rats, high dose): 0.85
- Ketoleucine (female rats; f7, female rats, high dose): 0.72
- Lactate (female rats; f7, female rats, high dose): 0.56
- Proline (female rats; f7, female rats, high dose): 0.91
- Serine (female rats; f7, female rats, high dose): 1
- Valine (female rats; f7, female rats, high dose): 0.92
- Alanine (female rats; f14, female rats, high dose): 0.81
- Arginine (female rats; f14, female rats, high dose): 0.73
- Ketoleucine (female rats; f14, female rats, high dose): 0.71
- Lactate (female rats; f14, female rats, high dose): 1.24
- Proline (female rats; f14, female rats, high dose): 0.81
- Serine (female rats; f14, female rats, high dose): 0.91
- Valine (female rats; f14, female rats, high dose): 0.72
- Isopalmitic acid (C16:0) (female rats; f28, female rats, high dose, Table 17a): 1.52 *
- Alanine (female rats; f28, female rats, high dose): 0.92
- Arginine (female rats; f28, female rats, high dose): 0.93
- Ketoleucine (female rats; f28, female rats, high dose): 0.67
- Lactate (female rats; f28, female rats, high dose): 0.65
- Proline (female rats; f28, female rats, high dose): 1.03
- Serine (female rats; f28, female rats, high dose): 1.06
- Valine (female rats; f28, female rats, high dose): 0.98
- Isopalmitic acid (C16:0) (female rats; rat, in vivo): 1.41 *
SMILES: CN(CCOc1ccc(CC2SC(=O)NC2=O)cc1)c1ccccn1 (stereo not shown) [Rosiglitazone maleate]
